From patent publication US20070208067A1, “Tablet Formulations and Processes” (Wyeth, priority 2006, published 2007) come the findings set out here.

A short description of data set [1]: Dynamic vapor sorption (hygroscopicity) of the two crystal forms. It is filed as physicochemical. To be noted: for DVS weight gain: 0–90% RH; for Hygroscopicity (DVS): result in words. From the text: Dynamic Vapor Sorption (Allentown, Pa.) was used to measure the hygroscopicity of the anhydrate and monohydrate of the invention (see FIGS. 6 and 7). The step conditions were three hours each at 0%, 30%, 52.5%, 75% and 90% RH, two full cycles.

Data set [2] in a line: Stability studies of the two crystal forms (XRPD, TGA, HPLC). To be noted: for Chemical stability (HPLC) / Crystal form transformation (XRPD and TGA): 40° C./75% RH (monohydrate also 40° C. without humidity control). The class given is physicochemical. The procedure: […] At room temperature, humidity was maintained at 0% RH. Humidity was not controlled for the higher temperatures.
The samples were analyzed by XRPD and TGA.
Non-micronized samples of monohydrate and anhydrate were stored at 40° C./75% RH for three months. The monohydrate was also stored at 40° C. without humidity control. During the three months, the samples were checked after two weeks, one month, two months, and three months.

As for `C=Cc1cc(O)cc2nc(-c3ccc(O)c(F)c3)oc12` [Monohydrate, 2-(3-fluoro-4-hydroxyphenyl)-7-vinyl-1,3-benzoxazol-5-ol], in data set [1], the DVS weight gain is reported as 0.1% gain (0–90% RH). In addition, the “Hygroscopicity (DVS)” value in data set [1] is listed as “largely non-hygroscopic”. For the same molecule, the “Solid-state stability (XRPD and TGA)” value was “no obvious dehydration” in data set [2] (56° C., humidity not controlled, one week); “no obvious hydration” in data set [2] (70° C., humidity not controlled, 1 day); “partially dehydrated” in data set [2] (70° C., humidity not controlled, 4 days); “mostly dehydrated” in data set [2] (70° C., humidity not controlled, 7 days); “no obvious dehydration” in data set [2] (room temperature, 0% RH, one week). Also, the “Solid-state stability (XRPD)” value in data set [2] (70° C., one hour) is reported as “stable”; in data set [2] (90° C., one half hour), “partially dehydrated”; in data set [2] (90° C., one hour), “completely dehydrated”. The “Chemical stability (HPLC)” value in data set [2] (non-micronized, three months) is given as “chemically stable”. In data set [2] (non-micronized, three months), the “Crystal form transformation (XRPD and TGA)” value is recorded as “did not transform”.
For `C=Cc1cc(O)cc2nc(-c3ccc(O)c(F)c3)oc12` [Anhydrate, 2-(3-fluoro-4-hydroxyphenyl)-7-vinyl-1,3-benzoxazol-5-ol], in data set [1], the DVS weight gain is 0.2% gain (0–90% RH) and the “Hygroscopicity (DVS)” value is “largely non-hygroscopic”. In data set [2] (micronized, 25° C./60% RH, three months), the “Crystal form transformation (XRPD)” value is on record as “did not transform to the monohydrate”. Besides, the “Crystal form transformation (XRPD)” value in data set [2] (micronized, 40° C./75% RH, one month) was “partially transform to the monohydrate”. In data set [2] (non-micronized, three months), the “Chemical stability (HPLC)” value is “chemically stable”; the “Crystal form transformation (XRPD and TGA)” value is “did not transform”. Further, the “Crystal form transformation (XRPD)” value in data set [2] (non-micronized, 40° C./75% RH, separate study) is on record as “did not show any obvious transformation”.
